Test results from ChEMBL document CHEMBL1158119, “Hyrtiazepine, an azepino-indole-type alkaloid from the Red Sea marine sponge Hyrtios erectus” (J Nat Prod, 2006).

Molecular target: T1, Phospholipase A2 alpha (Crotalus adamanteus, UniProt P00623)
T1 sequence (P00623 whole entry): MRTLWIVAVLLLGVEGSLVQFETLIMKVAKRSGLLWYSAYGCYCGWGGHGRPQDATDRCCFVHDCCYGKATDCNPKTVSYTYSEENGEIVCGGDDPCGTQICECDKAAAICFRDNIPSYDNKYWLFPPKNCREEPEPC
Test: Inhibition of Crotalus adamanteus venom phospholipase A2 by fluorometric assay

SMILES: CC1=C(CC/C(C)=C/CCC2=CC[C@H](C3=CC(=O)O[C@H]3O)O[C@H]2O)C(C)(C)CCC1 [MANOALIDE]
- IC50: 0.4 µM

SMILES: O=C(c1c[nH]c2ccc(O)cc12)c1nccc2c1[nH]c1ccc(O)cc12 [HYRTIOSULAWESINE]
- IC50: 14 µM
